# Counter-ions that a name gives are not always drawn.
# Biological target: T1, human ProRS (prolyl tRNA synthetase moiety of glutamyl prolyl tRNA synthetase) (Homo sapiens, UniProt P07814)
# T1 construct: The prolyl tRNA synthetase moiety (ProRS) in the cDNA of glutamyl prolyl tRNA synthetase was subcloned; 6xHis (N, cleaved yes); made in house; host or cells: E. coli BL21 (DE3)
# T1 sequence (P07814 1007-1512 limits assumed): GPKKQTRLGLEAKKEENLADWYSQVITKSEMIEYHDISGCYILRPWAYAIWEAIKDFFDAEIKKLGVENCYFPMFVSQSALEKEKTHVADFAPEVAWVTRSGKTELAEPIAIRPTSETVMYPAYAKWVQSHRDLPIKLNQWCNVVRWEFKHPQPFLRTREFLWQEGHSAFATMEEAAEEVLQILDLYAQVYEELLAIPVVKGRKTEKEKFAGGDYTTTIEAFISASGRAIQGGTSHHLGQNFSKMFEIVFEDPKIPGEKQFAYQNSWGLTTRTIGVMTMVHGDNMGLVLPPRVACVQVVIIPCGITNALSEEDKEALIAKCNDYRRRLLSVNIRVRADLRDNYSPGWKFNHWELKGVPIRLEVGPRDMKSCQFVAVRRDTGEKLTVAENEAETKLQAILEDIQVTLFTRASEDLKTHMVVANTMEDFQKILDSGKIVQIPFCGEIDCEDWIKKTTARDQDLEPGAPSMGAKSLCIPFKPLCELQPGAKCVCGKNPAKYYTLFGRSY
# Test: Assay for inhibitors of prolyl tRNA synthetase activity (ProRS assay, labeled proline incorporation)
# Assay type: biochemical
# Details: ProRS 20 nM, compounds 10 μM to 0.5 nM, 10 min at 37° C.; read-out: EPR IC50
# Excerpt: In order to establish the activities of the compounds highlighted above, we determined extent of inhibition of prolyl tRNA synthetase activity in dose response curves to obtain IC50 values.
# The prolyl tRNA synthetase moiety (ProRS) in the cDNA of glutamyl prolyl tRNA synthetase was subcloned, tagged with a single biotin, purified and used in the assay. Briefly, human ProRS with a 6× N-terminal His tag in pET28N with TVMV BioP was transformed in E. coli BL21 (DE3) cells, selected, overexpressed and purified using a Ni Seph 6 FF XK 16/20 column in the first stage. Ni-NTA eluates were pooled and treated with TVMV protease, and biotinylated using d-Biotin, MgCl2, ATP and the BirA enzyme. This was rerun through a Ni column as before. The eluates were further enriched and purified using membrane ultrafiltration and a SuperDex 200 XK 16/60 column, and peak fractions were confirmed by SDS-PAGE prior to protein amount determination, aliquoting and storage at −80° C.
# ProRS assay was performed in 96 well plates in a final reaction volume of 20 μl, using staggered additions of Tris-Cl (pH 7.5, 60 mM), dithiothreitol (2 mM), ATP (5 mM, pH 7.0), MgCl2 6 mM), ProRS (20 nM, with pre-determined active fraction range) and bovine tRNA (20 μg). Controls and compounds, at various concentrations (10 μM to 0.5 nM), were incubated on ice with enzyme mix for 15 min followed by addition of proline (non-labeled and labeled, 3.96 and 1.04 μM (1 μCi) respectively) to initiate the reaction. Reaction was carried out for 10 min at 37° C. and terminated by addition of TCA (10%, 100 μl). Reaction mix was collected on a Whatman GF/B filter using a vacuum filtration manifold. This filter was washed 3 times with 5% TCA followed by 2 washes with ethanol, air dried, and read using a liquid scintillation counter (TopCount NXT) using MicroScint O. IC50 values were calculated and analyzed using ToolSet (4-parameter plot) and depicted herein.
row,SMILES,IC50
1,"Cc1cc(Cl)cc2c(=O)n(CC(=O)CC3CCCCN3)cnc12 (stereo not shown) [Example 3, 6-Chloro-8-methyl-3-[2-oxo-3-(piperidin-2-yl)propyl]quinazolin-4(3H)-one hydrochloride]",71 nM
2,"Cc1cc(Cl)cc2c(=O)n(CC(=O)CC3CCCCN3)cnc12 (stereo not shown) [Example 4, 6-Chloro-8-methyl-3-[2-oxo-3-(piperidin-2-yl)propyl]quinazolin-4(3H)-one hydrochloride]",807 nM
3,"Cc1cc(C2CC2)nc2c(=O)n(CC(=O)C[C@H]3NCCC[C@@H]3O)cnc12 [Example 12, 6-cyclopropyl-3-(3-((2R,3S)-3-hydroxypiperidin-2-yl)-2-oxopropyl)-8-methylpyrido[3,2-d]pyrimidin-4(3H)-one dihydrochloride]",13 nM
4,"Cc1cc(C(F)(F)F)nc2c(=O)n(CC(=O)C[C@H]3NCCC[C@@H]3O)cnc12 [Example 13, 3-{3-[(2R,3S)-3-hydroxypiperidin-2-yl]-2-oxopropyl}-8-methyl-6-(trifluoromethyl)pyrido[3,2-d]pyrimidin-4(3H)-one dihydrochloride]",17 nM
5,"Cc1cc(-c2cccc(C(F)(F)F)c2)nc2c(=O)n(CC(=O)C[C@H]3NCCC[C@@H]3O)cnc12 [Example 15, 3-{3-[(2R,3S)-3-hydroxypiperidin-2-yl]-2-oxopropyl}-8-methyl-6-(3-(trifluoromethyl)phenyl)pyrido[3,2-d]pyrimidin-4(3H)-one bis(2,2,2-trifluoroacetic acid)]",8 nM
6,"Cc1cc(C(C)C)cc2c(=O)n(CC(=O)C[C@@H]3CCCCN3)cnc12 [Example 18, (S)-6-isopropyl-8-methyl-3-{2-oxo-3-[piperidin-2-yl]propyl}quinazolin-4(3H)-one hydrochloride]",140 nM
7,"Cc1cc(C(F)(F)F)cc2c(=O)n(CC(=O)C[C@@H]3CCCCN3)cnc12 [Example 19, (S)-8-methyl-3-{2-oxo-3-[piperidin-2-yl]propyl}-6-(trifluoromethyl)quinazolin-4(3H)-one 2,2,2-trifluoroacetate]",159 nM
8,"O=C(C[C@@H]1CCCCN1)Cn1cnc2ccncc2c1=O [Example 20, (S)-3-{2-oxo-3-[piperidin-2-yl-propyl-pyrido(4,3-d)]}pyrimidin-4(3H)-one-dihydrochloride]",60 nM
9,"Cc1cc(C)c2ncn(C[C@@H](O)C[C@H]3NCCC[C@@H]3O)c(=O)c2n1 [Example 21, 3-{(S)-2-hydroxy-3-[(2R,3S)-3-hydroxypiperidin-2-yl]propyl}-6,8-dimethylpyrido[3,2-d]pyrimidin-4(3H)-one dihydrochloride]",491 nM
10,"O=c1c2nc(-c3cccc(Cl)c3)ccc2ncn1C[C@@H](O)C[C@H]1NCCC[C@@H]1O [Example 22, 6-(3-Chlorophenyl)-3-{(S)-2-hydroxy-3-[(2R,3S)-3-hydroxypiperidin-2-yl]propyl}pyrido[3,2-d]pyrimidin-4(3H)-one dihydrochloride]",20 nM
11,"O=c1c2nc(-c3cccc(F)c3)ccc2ncn1C[C@@H](O)CC1NCCC[C@@H]1O (stereo partly drawn) [Example 24, 6-(3-Fluorophenyl)-3-{(2S)-2-hydroxy-3-[(3S)-3-hydroxypiperidin-2-yl]propyl}pyrido[3,2-d]pyrimidin-4(3H)-one dihydrochloride]",8 nM
12,"O=c1c2nc(-c3ccc(F)c(F)c3)ccc2ncn1C[C@@H](O)C[C@H]1NCCC[C@@H]1O [Example 25, 6-(3,4-Difluorophenyl)-3-{(S)-2-hydroxy-3-[(2R,3S)-3-hydroxypiperidin-2-yl]propyl}pyrido[3,2-d]pyrimidin-4(3H)-one dihydrochloride]",25 nM
13,"O=c1c2cnccc2ncn1C[C@@H](O)C[C@H]1NCCC[C@@H]1O [Example 26, 3-{(S)-2-Hydroxy-3-[(2R,3S)-3-hydroxypiperidin-2-yl]propyl}pyrido[4,3-d]pyrimidin-4(3H)-one dihydrochloride]",80 nM
14,"Cc1cc(-c2ccc(F)c(F)c2)nc2c(=O)n(C[C@@H](O)C[C@H]3NCCC[C@@H]3O)cnc12 [Example 27, 6-(3,4-difluorophenyl)-3-((S)-2-hydroxy-3-((2R,3S)-3-hydroxypiperidin-2-yl)propyl)-8-methylpyrido[3,2-d]pyrimidin-4(3H)-one dihydrochloride]",172 nM
15,"Cc1cc(-c2cccc(C(F)(F)F)c2)nc2c(=O)n(C[C@@H](O)C[C@H]3NCCC[C@@H]3O)cnc12 [Example 28, 3-{(2S)-2-hydroxy-3-[(2R,3S)-3-hydroxy-2-piperidyl]propyl}-8-methyl-6-[3-(trifluoromethyl)phenyl]pyrido[3,2-d]pyrimidin-4-one;dihydrochloride]",27 nM

# Results, then the molecule that gave them:
row,IC50,SMILES
1,10 nM,"O=C(C[C@H]1NCCC[C@@H]1O)Cn1cnc2ccc(-c3cccc(Cl)c3)nc2c1=O [Example 5, 6-(3-chlorophenyl)-3-{3-[(2R,3S)-3-hydroxypiperidin-2-yl]-2-oxopropyl}pyrido[3,2-d]pyrimidin-4(3H)-one dihydrochloride]"
2,23 nM,"O=C(C[C@H]1NCCC[C@@H]1O)Cn1cnc2ccc(-c3cccc(C(F)(F)F)c3)nc2c1=O [Example 6, 3-{3-[(2R,3S)-3-Hydroxypiperidin-2-yl]-2-oxopropyl}-6-[3-(trifluoromethyl)phenyl]pyrido[3,2-d]pyrimidin-4(3H)-one dihydrochloride]"
3,5 nM,"O=C(C[C@H]1NCCC[C@@H]1O)Cn1cnc2ccc(-c3cccc(F)c3)nc2c1=O [Example 7, 6-(3-Fluorophenyl)-3-{3-[(2R,3S)-3-hydroxypiperidin-2-yl]-2-oxopropyl}pyrido[3,2-d]pyrimidin-4(3H)-one dihydrochloride]"
4,14 nM,"O=C(C[C@H]1NCCC[C@@H]1O)Cn1cnc2ccncc2c1=O [Example 8, 3-{3-[(2R,3S)-3-hydroxypiperidin-2-yl]-2-oxopropyl}pyrido[4,3-d]pyrimidin-4(3H)-one dihydrochloride]"
5,8 nM,"O=C(C[C@H]1NCCC[C@@H]1O)Cn1cnc2ccc(-c3ccc(F)c(F)c3)nc2c1=O [Example 9, 6-(3,4-difluorophenyl)-3-{3-[(2R,3S)-3-hydroxypiperidin-2-yl]-2-oxopropyl}pyrido[3,2-d]pyrimidin-4(3H)-one dihydrochloride]"
6,9 nM,"O=C(C[C@H]1NCCC[C@@H]1O)Cn1cnc2ccc(-c3cccnc3)nc2c1=O [Example 11, 3-{3-[(2R,3S)-3-hydroxypiperidin-2-yl]-2-oxopropyl}-6-(pyridin-3-yl)pyrido[3,2-d]pyrimidin-4(3H)-one trihydrochloride]"
7,7 nM,"Cc1cc(-c2cccc(F)c2)nc2c(=O)n(CC(=O)C[C@H]3NCCC[C@@H]3O)cnc12 [Example 14, 6-(3-fluorophenyl)-3{3-[(2R,3S)-3-hydroxypiperidin-2-yl]-2-oxopropyl}-8-methylpyrido[3,2-d]pyrimidin-4(3H)-one dihydrochloride]"
8,3 nM,"Cc1cc(-c2cccc(Cl)c2)nc2c(=O)n(CC(=O)C[C@H]3NCCC[C@@H]3O)cnc12 [Example 16, 6-(3-chlorophenyl)-3-{3-[(2R,3S)-3-hydroxypiperidin-2-yl]-2-oxopropyl}-8-methylpyrido[3,2-d]pyrimidin-4(3H)-one bis(2,2,2-trifluoroacetate)]"
9,12 nM,"Cc1cc(-c2cccnc2)nc2c(=O)n(CC(=O)C[C@H]3NCCC[C@@H]3O)cnc12 [Example 17, 3-{3-[(2R,3S)-3-hydroxypiperidin-2-yl]-2-oxopropyl}-8-methyl-6-(pyridin-3-yl)pyrido[3,2-d]pyrimidin-4(3H)-one trihydrochloride]"
10,103 nM,"O=c1c2nc(-c3cccnc3)ccc2ncn1C[C@@H](O)C[C@H]1NCCC[C@@H]1O [Example 29, 3-{(S)-2-hydroxy-3-[(2R,3S)-3-hydroxypiperidin-2-yl]propyl}-6-(pyridin-3-yl)pyrido[3,2-d]pyrimidin-4(3H)-one 2,2,2-trifluoroacetate]"

# Reference: patent publication US20210122746A1, “FEBRIFUGINE DERIVATIVES” (BRISTOL-MYERS SQUIBB COMPANY, priority 2017, published 2021)
